According to US7838543B2, “MCH receptor antagonists” (Eli Lilly and Company, priority 2005, dated 2010):
Like-named read-outs stand apart in the source and are kept apart here.

How the values were obtained:
[1] = molecular target: T1, human MCHR1 (Homo sapiens, UniProt Q99705); assay: 125I-MCH competitive binding assay with clone 43 membranes; settings: Ki from IC50 by Cheng-Prusoff
T1 construct: The full-length cDNA for human MCHR1 was cloned from a human adult brain cDNA library; expressed in transfected cells; host or cells: AV12 cells previously transfected with Galpha15
T1 sequence (Q99705 whole entry): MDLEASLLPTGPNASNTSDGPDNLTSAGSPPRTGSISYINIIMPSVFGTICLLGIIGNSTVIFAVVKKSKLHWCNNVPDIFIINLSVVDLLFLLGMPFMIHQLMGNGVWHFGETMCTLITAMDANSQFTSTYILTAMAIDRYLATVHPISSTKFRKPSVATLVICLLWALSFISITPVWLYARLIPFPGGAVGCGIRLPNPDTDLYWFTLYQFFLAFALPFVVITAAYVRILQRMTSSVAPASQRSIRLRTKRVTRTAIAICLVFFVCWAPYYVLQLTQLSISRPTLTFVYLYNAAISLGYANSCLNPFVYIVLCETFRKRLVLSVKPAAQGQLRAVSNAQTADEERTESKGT
Procedure: The full-length cDNA for human MCHR1 was cloned from a human adult brain cDNA library (Edge Biosystems, Cat. 38356) by standard polymerase chain reaction (PCR) methodology employing the following primers: sense, 5′-GCCACCATGGACCT GGAAGCCTCGCTGC-3′; anti-sense, 5′-[…]-3′. The PCR reaction was performed in a final volume of 50 μl containing 5 μl of a 10× stock solution of PCR buffer, 1 μl of 10 mM dNTP mixture (200 μM final), 2 μl of 50 mM Mg(SO4) (2 mM final), 0.5 μl of 20 μM solutions of each primer (0.2 μM final), 5 μl of template cDNA containing 0.5 ng DNA, 0.5 μl of Platinum Taq High Fidelity DNA polymerase (Gibco Life Technologies) and […] of H2O. PCR amplification was performed on a Perkin Elmer 9600 thermocycler. After denaturation for 90 sec at 94° C., the amplification sequence consisting of 94° C. for 25 sec, 55° C. for 25 sec and 72° C. for 2 min was repeated 30 times, followed by a final elongation step at 72° C. for 10 min. The desired PCR product (1.1 Kb) was confirmed by agarose gel electrophoresis and the band was extracted from the gel by Geneclean (Bio101) following the manufacturer's instructions. Following extraction, the cDNA fragment was cloned into pCR2.1-TOPO plasmid (Invitrogen Corp) to confirm the identity and sequence.
In order to generate cell lines stably expressing MCHR1, the insert was then subcloned into the Xba I and Not I sites of pcDNA(+)-3.1-neomycin (Invitrogen). After purification by Qiagen Maxi-prep kit (QIAGEN, Inc.), the plasmid was transfected by Fugene 6 (Roche Applied Science) into AV12 cells that had been previously transfected with the promiscuous G protein Gα15. The transfected cells were selected by G418 (800 μg/ml) for 10-14 days and single colonies were isolated from culture plates. The G418-resistant colonies were further selected for MCHR1 expression by measuring MCH-stimulated Ca^2+ transients with a fluorometric imaging plate reader (FLIPR, Molecular Devices).
Both the ^125I-MCH binding and functional GTPγ^35S binding assays employed membranes isolated from a clone designated as clone 43. Typically, cells from 20 confluent T225 flasks were processed by washing the monolayers in cold phosphate-buffered saline (PBS), scraping the cells into same and re-suspending the cell pellet in 35 ml of 250 mM Sucrose, 50 mM HEPES, pH 7.5, 1 mM MgCl2, 24 μg/ml DNase I, and protease inhibitors (1 Complete® tablet, per 50 ml of buffer prepared, Roche Diagnostics). […]
Binding of compounds to MCHR1 was assessed in a competitive binding assay employing ^125I-MCH, compound and clone 43 membranes. […] Non-specific binding is assessed in the presence of 0.1 μM unlabeled MCH. Bound ^125I-MCH is determined by placing sealed plates in a Microbeta Trilux (Perkin Elmer Life and Analytical Sciences Inc) and counting after a 12 hr delay. […]

[2] = tested on: diet-induced obese male Long-Evans rats; assay: 3 day body weight change in diet-induced obese rats after oral dosing; format: in vivo, rat; settings: 10 mg/kg oral once a day for 3 days, 3 day cumulative, relative to vehicle control
Procedure: Vehicle consisted of 1% CMC and 0.25% PS-80 in water.
Animals were individually housed in a temperature regulated room (24° C.) with a reverse 12 hour light/dark cycle (dark 10:00/22:00). Water and food (Teklad 95217, Harlan, Wis.) were available ad libitum. Compounds were dosed orally once a day before onset of dark for 3 days. Daily food intake and body weight change were measured for the 3 day period.

| SMILES | Ki ([1]; read-out: Average MCHR1 Ki) | Body weight reduction @ 10 mg/Kg versus vehicle control. Data expressed in grams. [2] | Ki ([1]; Average MCHR1 Ki (nM)) |
| --- | --- | --- | --- |
| CN1CCC(CN(C)c2nc3cc(NC(=O)c4ccc(-c5ccc(F)cc5)cc4)ccc3o2)C1 (single isomer, unassigned) [Example 34, 4′-Fluoro-biphenyl-4-carboxylic acid {2-[methyl-(1-methyl-pyrrolidin-3-ylmethyl)-amino]-benzooxazol-5-yl}-amide] | 8.79 nM | 5.8 grams |  |
| CN1CCC(N(C)c2nc3ccc(NC(=O)c4ccc(-c5ccc(F)cc5)cc4)cc3s2)C1 (single isomer, unassigned) [Example 106, 4′-Fluoro-biphenyl-4-carboxylic Acid {2-[methyl-(1-methyl-pyrrolidin-3-yl)-amino]-benzothiazol-6-yl}-amide] | 16.7 nM | 8.4 grams |  |
| CN1CCC(N(C)c2nc3ccc(NC(=O)c4ccc(-c5ccc(F)cc5)cc4)cc3s2)C1 (single isomer, unassigned) [Example 107, 4′-Fluoro-biphenyl-4-carboxylic Acid {2-[methyl-(1-methyl-pyrrolidin-3-yl)-amino]-benzothiazol-6-yl}-amide] | 15.3 nM | 7.1 grams |  |
| CN1CCC(N(C)c2nc3cc(NC(=O)c4ccc(-c5ccc(F)cc5Cl)cc4)ccc3o2)CC1.Cl [Example 157, 2′-Chloro-4′-fluoro-biphenyl-4-carboxylic acid {2-[methyl-(1-methyl-piperidinyl)-amino]-benzooxazol-5-yl}-amide Hydrochloride] |  | 18 grams | 7.5 nM |
